Measured values as given in patent US12508261B2, “Methods of treating depression with vortioxetine” (Rundle Research LLC, priority 2017, dated 2025).

Legend:
[1] = Regression model estimating vortioxetine half-life and MAOI delay from total body fat and steady-state plasma concentration (CYP2D6 metabolizer status); parameters: species or system human
Source text: Data obtained in the study described in Example 1 and Table 1 provided the basis for a regression model (having a r^2 value of 88%) based on total body fat and steady-state vortioxetine plasma concentration. Because the steady-state plasma concentration of vortioxetine correlates with metabolizer status, this regression provides a means of estimating vortioxetine half-life for patients based on total body fat and CYP2D6 metabolizer status.
Alternatively, the delay period can be calculated based on any particular values in Table 1, or any statistical parameter for characterizing the subject population of Table, such as the arithmetic mean, geometric mean, maximum, minimum, maximum or minimum 90% confidence interval, etc. of the half-life (e.g., 7.5×the average t1/2, 7.5×the maximum t1/2, and so forth, or the 21 day equivalency to a normal weight extensive metabolizer subject, based on the average t1/2 or the maximum t1/2 or any of the aforementioned statistically parameters).

[2] = TRINTELLIX label; cited from earlier work
[3] = Extensive(a) average of obese steady-state concentration for extensive metabolizers, total fat 60 kg
[4] = Extensive(a) average of obese steady-state concentration for extensive metabolizers, total fat 70 kg
[5] = Extensive(a) average of obese steady-state concentration for extensive metabolizers, total fat 80 kg
[6] = Extensive(a) average of obese steady-state concentration for extensive metabolizers, total fat 90 kg
[7] = Extensive(a) average of obese steady-state concentration for extensive metabolizers, total fat 100 kg
[8] = Extensive(b) high of extensive metabolizers, total fat 40 kg
[9] = Extensive(b) high of extensive metabolizers, total fat 50 kg
[10] = Extensive(b) high of extensive metabolizers, total fat 60 kg
[11] = Extensive(b) high of extensive metabolizers, total fat 70 kg
[12] = Extensive(b) high of extensive metabolizers, total fat 80 kg
[13] = Extensive(b) high of extensive metabolizers, total fat 90 kg
[14] = Extensive(b) high of extensive metabolizers, total fat 100 kg
[15] = IM(c) average of intermediate metabolizer values, total fat 10 kg
[16] = IM(c) average of intermediate metabolizer values, total fat 20 kg
[17] = IM(c) average of intermediate metabolizer values, total fat 30 kg
[18] = IM(c) average of intermediate metabolizer values, total fat 40 kg
[19] = IM(c) average of intermediate metabolizer values, total fat 50 kg
[20] = IM(c) average of intermediate metabolizer values, total fat 60 kg
[21] = IM(c) average of intermediate metabolizer values, total fat 70 kg
[22] = IM(c) average of intermediate metabolizer values, total fat 80 kg
[23] = IM(c) average of intermediate metabolizer values, total fat 90 kg
[24] = IM(c) average of intermediate metabolizer values, total fat 100 kg
[25] = IM(d) high of IM values, total fat 10 kg
[26] = IM(d) high of IM values, total fat 20 kg
[27] = IM(d) high of IM values, total fat 30 kg
[28] = IM(d) high of IM values, total fat 40 kg
[29] = IM(d) high of IM values, total fat 50 kg
[30] = IM(d) high of IM values, total fat 60 kg
[31] = IM(d) high of IM values, total fat 70 kg
[32] = IM(d) high of IM values, total fat 80 kg
[33] = IM(d) high of IM values, total fat 90 kg
[34] = IM(d) high of IM values, total fat 100 kg
[35] = PM(e) estimated poor metabolizer values, total fat 10 kg
[36] = PM(e) estimated poor metabolizer values, total fat 20 kg
[37] = PM(e) estimated poor metabolizer values, total fat 30 kg
[38] = PM(e) estimated poor metabolizer values, total fat 40 kg
[39] = PM(e) estimated poor metabolizer values, total fat 50 kg
[40] = PM(e) estimated poor metabolizer values, total fat 60 kg
[41] = PM(e) estimated poor metabolizer values, total fat 70 kg
[42] = PM(e) estimated poor metabolizer values, total fat 80 kg
[43] = PM(e) estimated poor metabolizer values, total fat 90 kg
[44] = PM(e) estimated poor metabolizer values, total fat 100 kg

SMILES: Cc1ccc(Sc2ccccc2N2CCNCC2)c(C)c1 [vortioxetine]
- Half-Life Estimates ([1]; Extensive(a) average of obese steady-state concentration for extensive metabolizers, total fat 10 kg): 21 h
- Half-Life Estimates ([1]; Extensive(a) average of obese steady-state concentration for extensive metabolizers, total fat 20 kg): 32 h
- Half-Life Estimates ([1]; Extensive(a) average of obese steady-state concentration for extensive metabolizers, total fat 30 kg): 42 h
- Half-Life Estimates ([1]; Extensive(a) average of obese steady-state concentration for extensive metabolizers, total fat 40 kg): 52 h
- Half-Life Estimates ([1]; Extensive(a) average of obese steady-state concentration for extensive metabolizers, total fat 50 kg): 62 h
- Half-Life Estimates [1, 3]: 73 h
- Weeks of Delay (7.5 X half-life) [1, 3]: 3.2 Weeks
- Half-Life Estimates [1, 4]: 83 h
- Weeks of Delay (7.5 X half-life) [1, 4]: 3.7 Weeks
- Half-Life Estimates [1, 5]: 93 h
- Weeks of Delay (7.5 X half-life) [1, 5]: 4.2 Weeks
- Half-Life Estimates [1, 6]: 103 h
- Weeks of Delay (7.5 X half-life) [1, 6]: 4.6 Weeks
- Half-Life Estimates [1, 7]: 114 h
- Weeks of Delay (7.5 X half-life) [1, 7]: 5.1 Weeks
- Half-Life Estimates ([1]; Extensive(b) high of extensive metabolizers, total fat 10 kg): 39 h
- Half-Life Estimates ([1]; Extensive(b) high of extensive metabolizers, total fat 20 kg): 49 h
- Half-Life Estimates ([1]; Extensive(b) high of extensive metabolizers, total fat 30 kg): 59 h
- Half-Life Estimates [1, 8]: 70 h
- Weeks of Delay (7.5 X half-life) [1, 8]: 3.1 Weeks
- Half-Life Estimates [1, 9]: 80 h
- Weeks of Delay (7.5 X half-life) [1, 9]: 3.6 Weeks
- Half-Life Estimates [1, 10]: 90 h
- Weeks of Delay (7.5 X half-life) [1, 10]: 4.0 Weeks
- Half-Life Estimates [1, 11]: 100 h
- Weeks of Delay (7.5 X half-life) [1, 11]: 4.5 Weeks
- Half-Life Estimates [1, 12]: 111 h
- Weeks of Delay (7.5 X half-life) [1, 12]: 4.9 Weeks
- Half-Life Estimates [1, 13]: 121 h
- Weeks of Delay (7.5 X half-life) [1, 13]: 5.4 Weeks
- Half-Life Estimates [1, 14]: 131 h
- Weeks of Delay (7.5 X half-life) [1, 14]: 5.9 Weeks
- Half-Life Estimates [1, 15]: 102 h
- Weeks of Delay (7.5 X half-life) [1, 15]: 4.6 Weeks
- Half-Life Estimates [1, 16]: 112 h
- Weeks of Delay (7.5 X half-life) [1, 16]: 5.0 Weeks
- Half-Life Estimates [1, 17]: 123 h
- Weeks of Delay (7.5 X half-life) [1, 17]: 5.5 Weeks
- Half-Life Estimates [1, 18]: 133 h
- Weeks of Delay (7.5 X half-life) [1, 18]: 5.9 Weeks
- Half-Life Estimates [1, 19]: 143 h
- Weeks of Delay (7.5 X half-life) [1, 19]: 6.4 Weeks
- Half-Life Estimates [1, 20]: 153 h
- Weeks of Delay (7.5 X half-life) [1, 20]: 6.8 Weeks
- Half-Life Estimates [1, 21]: 164 h
- Weeks of Delay (7.5 X half-life) [1, 21]: 7.3 Weeks
- Half-Life Estimates [1, 22]: 174 h
- Weeks of Delay (7.5 X half-life) [1, 22]: 7.8 Weeks
- Half-Life Estimates [1, 23]: 184 h
- Weeks of Delay (7.5 X half-life) [1, 23]: 8.2 Weeks
- Half-Life Estimates [1, 24]: 194 h
- Weeks of Delay (7.5 X half-life) [1, 24]: 8.7 Weeks
- Half-Life Estimates [1, 25]: 116 h
- Weeks of Delay (7.5 X half-life) [1, 25]: 5.2 Weeks
- Weeks of Delay (21 day equivalency to Normal, 66 hr half-life) [1, 25]: 5.3 Weeks
- Half-Life Estimates [1, 26]: 126 h
- Weeks of Delay (7.5 X half-life) [1, 26]: 5.6 Weeks
- Weeks of Delay (21 day equivalency to Normal, 66 hr half-life) [1, 26]: 5.7 Weeks
- Half-Life Estimates [1, 27]: 136 h
- Weeks of Delay (7.5 X half-life) [1, 27]: 6.1 Weeks
- Weeks of Delay (21 day equivalency to Normal, 66 hr half-life) [1, 27]: 6.2 Weeks
- Half-Life Estimates [1, 28]: 147 h
- Weeks of Delay (7.5 X half-life) [1, 28]: 6.5 Weeks
- Weeks of Delay (21 day equivalency to Normal, 66 hr half-life) [1, 28]: 6.7 Weeks
- Half-Life Estimates [1, 29]: 157 h
- Weeks of Delay (7.5 X half-life) [1, 29]: 7.0 Weeks
- Weeks of Delay (21 day equivalency to Normal, 66 hr half-life) [1, 29]: 7.1 Weeks
- Half-Life Estimates [1, 30]: 167 h
- Weeks of Delay (7.5 X half-life) [1, 30]: 7.5 Weeks
- Weeks of Delay (21 day equivalency to Normal, 66 hr half-life) [1, 30]: 7.6 Weeks
- Half-Life Estimates [1, 31]: 177 h
- Weeks of Delay (7.5 X half-life) [1, 31]: 7.9 Weeks
- Half-Life Estimates [1, 32]: 188 h
- Weeks of Delay (7.5 X half-life) [1, 32]: 8.4 Weeks
- Half-Life Estimates [1, 33]: 198 h
- Weeks of Delay (7.5 X half-life) [1, 33]: 8.8 Weeks
- Weeks of Delay (21 day equivalency to Normal, 66 hr half-life) [1, 33]: 9.0 Weeks
- Half-Life Estimates [1, 34]: 208 h
- Weeks of Delay (7.5 X half-life) [1, 34]: 9.3 Weeks
- Weeks of Delay (21 day equivalency to Normal, 66 hr half-life) [1, 34]: 9.5 Weeks
- Half-Life Estimates [1, 35]: 215 h
- Weeks of Delay (7.5 X half-life) [1, 35]: 9.6 Weeks
- Half-Life Estimates [1, 36]: 225 h
- Weeks of Delay (7.5 X half-life) [1, 36]: 10.0 Weeks
- Half-Life Estimates [1, 37]: 235 h
- Weeks of Delay (7.5 X half-life) [1, 37]: 10.5 Weeks
- Half-Life Estimates [1, 38]: 245 h
- Weeks of Delay (7.5 X half-life) [1, 38]: 11.0 Weeks
- Half-Life Estimates [1, 39]: 256 h
- Weeks of Delay (7.5 X half-life) [1, 39]: 11.4 Weeks
- Half-Life Estimates [1, 40]: 266 h
- Weeks of Delay (7.5 X half-life) [1, 40]: 11.9 Weeks
- Half-Life Estimates [1, 41]: 276 h
- Weeks of Delay (7.5 X half-life) [1, 41]: 12.3 Weeks
- Half-Life Estimates [1, 42]: 286 h
- Weeks of Delay (7.5 X half-life) [1, 42]: 12.8 Weeks
- Half-Life Estimates [1, 43]: 297 h
- Weeks of Delay (7.5 X half-life) [1, 43]: 13.2 Weeks
- Half-Life Estimates [1, 44]: 307 h
- Weeks of Delay (7.5 X half-life) [1, 44]: 13.7 Weeks
- time to achieve steady-state plasma concentrations [2]: ≤ 2 weeks
